4 molecules from PMC11054459 (Molecules, 2024) can be followed below.

Data set [1] is described as follows: Body weight of MC38 tumor-bearing mice. Format: in vivo, mouse. To be noted: 1 and 3 mg/kg i.p. once daily for two weeks. The protocol: Animal experiments were approved by the Zhengzhou University Ethics Committee. MC38 cells (1 × 10^6) were subcutaneously inoculated into C57BL/N mice. The MC38 tumor-bearing mice were randomly allocated to three groupsn (n = 5 per group): a control group (NS, normal saline containing 1% DMSO); a D-gal-^LPPA-1 peptide group (1 mg/kg); and a D-gal-^LPPA-1 peptide group (3 mg/kg). Daily intraperitoneal injections of the peptide were initiated when the tumor volume reached 50–90 mm^3. The tumor dimensions, including length, width, and height, were measured, and tumor volume was calculated using the following formula:V = 1/2 × A (length) × B (width) × C (height).

Another data set concerns the target mouse PD-L1 (mPD-L1) (Mus musculus, UniProt Q9EP73). Kind of data set: MST binding assay, mPD-L1. To be noted: microscale thermophoresis (MST); mPD-L1-His 800 nM, RED-NHS dye, PBST; peptide 400 μM to 0.012 μM; triplicate, mean ± SEM; read-out: dissociation constant (KD), mPD-L1. The protocol: The concentrations of hPD-L1-His and mPD-L1-His proteins were adjusted to 200 nM and 800 nM, respectively, utilizing PBST as the diluent. Simultaneously, the concentration of RED-NHS676 dye was diluted to 100 nM in PBST. Subsequently, protein and dye were subjected to co-incubation at a volumetric ratio of 1:1 for a duration of 30 min, thereby facilitating the generation of labeled proteins. To establish peptide gradients, a progressive dilution was initiated from an initial concentration of 400 μM, eventually reaching 0.012 μM. Following this preparation, a homogenous amalgamation comprising 5 μL of labeled protein and 5 μL of small molecule diluent was extracted for further experimentation. Subsequently, the samples were transferred to standard capillary tubes and analyzed by an MST instrument (Nano Temper, Monolith NT.115, München, Germany).
On the technique in general: In MST a laser heats a spot of the sample, and binding alters the fluorescence response.

Data set [2] concerns heart, liver, spleen, lung, kidney of MC38 tumor-bearing mice. Kind of data set: H&E staining of major organs. The data set is classed as in vivo, mouse. To be noted: 1 and 3 mg/kg i.p., vs. normal saline control. The protocol: Tumor tissue and heart, liver, spleen, lung, and kidney tissues were isolated from MC38 tumor-bearing mice and fixed in 4.0% paraformaldehyde. The samples were subsequently embedded in paraffin and subjected to hematoxylin and eosin staining. The results were analyzed using ImageJ1 software (NIH, Bethesda, MD, USA).

Data set [3] concerns the target hPD-1/hPD-L1 interaction (CHO-K1-hPD-1 cells, hPD-L1 protein) (Homo sapiens, UniProt Q9NZQ7). The data set is described as follows: Peptide blocking assay (flow cytometry). Format: cell-based. To be noted: CHO-K1-hPD-1 cells 3 × 10^5 per sample, 50 ng hPD-L1, peptide + protein 30 min, + cells 30 min, on ice, 200 μM to 1.6 μM, means ± SEMs from three independent biological triplicates, read-out: IC50, blocking of PD-1/PD-L1 interaction. The protocol: The interaction between PD-1 and PD-L1 plays a pivotal role in suppressing T-cell function, and disrupting this interaction has emerged as a viable therapeutic strategy in cancer treatment. Thus, we investigated the inhibitory potential of D-glu-^LPPA-1 and D-gal-^LPPA-1 on the PD-1/PD-L1 interaction. To conduct the experiment, CHO-K1-hPD-1 cells were harvested at a density of 3 × 10^5 cells per sample. Peptides were solubilized to a concentration of 200 μM and serially diluted before coincubation with 50 ng of the hPD-L1 protein for 30 min. The protein–peptide mixture was introduced into CHO-K1-hPD-1 cells, which were then coincubated for an additional 30 min. The anti-Fc PE antibody was then added and incubated for 30 min. Flow cytometry was used to evaluate the efficacy of the peptides in blocking the hPD-1/hPD-L1 interaction.
For subsequent multi-concentration blocking assays, peptides were prepared in concentration gradients spanning 200 μM, 100 μM, 50 μM, 25 μM, 12.5 μM, and 6.25 μM. Peptides at different concentrations were incubated with hPD-L1 (mPD-L1) protein (50 ng) on ice for 30 min. Subsequently, the mixture was added to CHO-K1-hPD-1 or CHO-K1-mPD-1 cells and coincubated on ice for 30 min. […] The ability of the peptide to block the PD-1/PD-L1 interaction was assessed using flow cytometry.

In a further data set the target is mPD-L1-His (mouse, UniProt Q9EP73 19-290, labelled with RED-NHS676 dye). Kind of data set: MST; His-tagged PD-L1 (hPD-L1 200 nM, mPD-L1 800 nM) labelled 1:1 with 100 nM RED-NHS676 dye in PBST for 30 min; peptide diluted from 400 μM to 0.012 μM; standard capillaries, Monolith NT.115. To be noted: both partners purified.
The target of a further data set is hPD-L1-His (human, UniProt Q9NZQ7 19-290, labelled with RED-NHS676 dye). The description is as above. To be noted: both partners purified.
The target of a further data set is T1, hPD-L1-Fc (human, UniProt Q9NZQ7 19-238).
T1 construct: human PD-L1 (hPD-L1), recombinant protein fused to Fc; also called hPD-L1 protein
The data set is described as follows: flow cytometry on cells; blocking assay: peptide in serial dilution from 200 μM pre-incubated with 50 ng hPD-L1-Fc on ice for 30 min, mixture added to CHO-K1-hPD-1 cells (3 x 10^5 per sample) for 30 min, detected with anti-Fc PE antibody. To be noted: both partners purified.

Residues, ends and D or L forms follow the SMILES beside them. No end group written: not given here. *: point of attachment. X1 = NC(=O)C[C@H](N=C[C@H](O)[C@@H](O)[C@@H](O)[C@H](O)CO)C(=O)*; X2 = NC(=O)C[C@H](N=C[C@H](O)[C@@H](O)[C@H](O)[C@H](O)CO)C(=O)*

T1 sequence (Q9NZQ7 19-238): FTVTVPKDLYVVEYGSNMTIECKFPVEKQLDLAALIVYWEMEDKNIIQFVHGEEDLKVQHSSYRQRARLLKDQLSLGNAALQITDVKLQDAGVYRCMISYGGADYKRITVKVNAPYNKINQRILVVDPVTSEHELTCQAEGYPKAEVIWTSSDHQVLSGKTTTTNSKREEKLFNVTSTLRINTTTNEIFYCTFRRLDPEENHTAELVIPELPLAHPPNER
hPD-1/hPD-L1 interaction (CHO-K1-hPD-1 cells, hPD-L1 protein), sequence (Q9NZQ7 19-238 limits assumed): as the sequence (Q9NZQ7 19-238) above
mouse PD-L1 (mPD-L1), sequence (Q9EP73 19-290): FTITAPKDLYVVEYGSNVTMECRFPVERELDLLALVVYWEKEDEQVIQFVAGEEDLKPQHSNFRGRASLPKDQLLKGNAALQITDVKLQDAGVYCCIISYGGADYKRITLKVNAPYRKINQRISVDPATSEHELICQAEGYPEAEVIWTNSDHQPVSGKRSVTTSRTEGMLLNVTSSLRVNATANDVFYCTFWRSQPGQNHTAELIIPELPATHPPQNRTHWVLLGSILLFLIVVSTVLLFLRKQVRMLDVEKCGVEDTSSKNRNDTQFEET
mPD-L1-His, sequence (Q9EP73 19-290): as above
hPD-L1-His, sequence (Q9NZQ7 19-290): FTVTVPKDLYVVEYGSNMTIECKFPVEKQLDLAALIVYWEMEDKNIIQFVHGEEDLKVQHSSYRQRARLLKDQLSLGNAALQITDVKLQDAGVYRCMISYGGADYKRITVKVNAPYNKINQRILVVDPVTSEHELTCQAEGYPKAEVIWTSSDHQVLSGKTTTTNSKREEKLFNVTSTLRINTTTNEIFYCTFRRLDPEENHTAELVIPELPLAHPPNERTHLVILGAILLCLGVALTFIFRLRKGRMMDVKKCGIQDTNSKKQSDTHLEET

A word on the Kd: it is the concentration at which binding is half-saturated. In the case of `C[C@@H](O)[C@H](NC(=O)[C@@H]1CCCN1C(=O)[C@H](CCCCN)NC(=O)[C@H](CO)NC(=O)[C@H](Cc1ccc(O)cc1)NC(=O)[C@H](CC(N)=O)N=C[C@H](O)[C@@H](O)[C@@H](O)[C@H](O)CO)C(=O)N[C@@H](CC(=O)O)C(=O)N[C@@H](CCCNC(=N)N)C(=O)N[C@@H](CCC(N)=O)C(=O)N[C@@H](Cc1ccc(O)cc1)C(=O)N[C@@H](Cc1c[nH]cn1)C(=O)N[C@@H](Cc1ccccc1)C(=O)O` [D-gal-^LPPA-1] (X1-YSKPTDRQYHF-OH), the body weight result in data set [1] is on record as “no significant changes in body weight”. Moreover, at mouse PD-L1 (mPD-L1), the Kd stood at 0.015 ± 0.006 µM. Moreover, the “organ toxicity (H&E staining)” value in data set [2] is recorded as “no apparent toxicity observed”.

Regarding `C[C@@H](O)[C@H](NC(=O)[C@@H]1CCCN1C(=O)[C@H](CCCCN)NC(=O)[C@H](CO)NC(=O)[C@H](Cc1ccc(O)cc1)NC(=O)[C@H](CC(N)=O)N=C[C@H](O)[C@@H](O)[C@H](O)[C@H](O)CO)C(=O)N[C@@H](CC(=O)O)C(=O)N[C@@H](CCCNC(=N)N)C(=O)N[C@@H](CCC(N)=O)C(=O)N[C@@H](Cc1ccc(O)cc1)C(=O)N[C@@H](Cc1c[nH]cn1)C(=O)N[C@@H](Cc1ccccc1)C(=O)O` [D-glu-^LPPA-1] (X2-YSKPTDRQYHF-OH), in data set [3], the IC50 came to 75.5 ± 20.3 µM.

B1: D-gal-^LPPA-1 (peptide)
peptide: N(D‑galactose)YSKPTDRQYHF
notes: L-type peptide ^LPPA-1, L-amino-acid analogue of the PD-L1-targeting D-peptide ^DPPA-1; printed in three-letter code; source: synthetic peptide (Fmoc solid-phase synthesis, purified by reverse-phase HPLC)
On to B1, for which the Kd in the data set with mPD-L1-His was found to be 0.0149 µM; with hPD-L1-His it was 0.047 µM. Moreover, the IC50 with hPD-L1-Fc amounted to 101 µM.

B2: D-glu-^LPPA-1 (peptide)
peptide: N(D‑glucose)YSKPTDRQYHF
notes: as for B1
On to B2, for which the IC50 in the data set with hPD-L1-Fc was 75 µM.
